Test results reported in article PMC12491715 (Acta Pharmaceutica Sinica. B, 2025).
Several values for one entry are separate records, joined by “and”; a condition that tells them apart may be missing. Identical values can stand only once. Like-named read-outs stand apart in the source and are kept apart here.

Target: T1, AChE (Mus musculus, UniProt P21836)
T1 construct: from tissue; host or cells: mouse serum (C57BL/6JRccHsd)
T1 sequence (P21836 32-614): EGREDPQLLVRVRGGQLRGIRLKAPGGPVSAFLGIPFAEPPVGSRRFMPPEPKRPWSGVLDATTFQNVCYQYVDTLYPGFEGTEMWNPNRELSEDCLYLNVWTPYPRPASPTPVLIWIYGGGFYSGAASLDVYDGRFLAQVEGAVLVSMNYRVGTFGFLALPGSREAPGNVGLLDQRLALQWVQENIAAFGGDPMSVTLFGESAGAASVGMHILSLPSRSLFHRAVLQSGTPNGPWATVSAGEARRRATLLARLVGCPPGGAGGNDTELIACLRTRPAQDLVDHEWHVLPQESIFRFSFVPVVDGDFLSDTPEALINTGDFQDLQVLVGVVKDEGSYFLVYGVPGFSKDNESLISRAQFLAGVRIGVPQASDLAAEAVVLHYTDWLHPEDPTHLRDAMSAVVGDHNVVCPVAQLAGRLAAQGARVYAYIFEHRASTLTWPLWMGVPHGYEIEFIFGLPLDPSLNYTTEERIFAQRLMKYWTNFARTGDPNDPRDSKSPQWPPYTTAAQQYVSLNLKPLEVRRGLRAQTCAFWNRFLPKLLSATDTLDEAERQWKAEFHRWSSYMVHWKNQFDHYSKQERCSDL
Assay: Cholinesterase inhibition upon repeated dosing, serum AChE
Assay type: in vivo, C57BL/6JRccHsd mice
Description: The 12 mice used in this pilot study were 9–14 months old male wild-type C57BL/6JRccHsd mice bred in the Laboratory of Animal Genomics at the Faculty of Veterinary Medicine, University of Ljubljana, or purchased from Envigo RMS Holding Corp. Mice were conventionally bred in open polycarbonate cages (Tecniplast, Buguggiate, Italy) and provided with wood chip bedding (Lignocel®, Rettenmaier and Sons, Germany). Mice were kept under standard conditions, including a 12:12 dark–light cycle (LED, CCT 3000 k, with no more than 25 lux above the cage), a temperature range of 21–24 °C, and humidity between 50%–60%. They were fed irradiated rodent diet (Teklad global 16% protein rodent diet®, BN 2916, Envigo, Udine, Italy) and had access to drinkable tap water ad libitum. Due to the nature of this pilot study, the mice were housed individually. The experimental design was evaluated by the National Ethics Committee for Animal Experiments and approved by the Veterinary Administration of the Republic of Slovenia (document no. U34401-10/2021/8, with amendments U34401-10/2021/13 and U34401-10/2021/1).
Before the start of study, blood was drawn from the submandibular vein (facial vein) of the animals under isoflurane inhalation anesthesia (Isoflurin®, VetPharma, Spain) using a 5 mm lancet (Goldenrod Animal Sterile, MEDIpoint, Inc., NY, USA), collected in a microtube (Eppendorf, Safe-Lock tube, 0.5 mL, Eppendorf AG, Germany) and allowed to clot. After approximately 1 h, the blood was centrifuged at 6000 × g for 15 min at 4 °C to obtain the sera, which were stored at –80 °C until analysis.
Seven animals received the 1 mg/kg dose of compound 8, and five animals received the 5 mg/kg dose of compound 8. Compound 8 was prepared as a stock solution in 100% MeCN (5 and 10 mg/mL) and kept refrigerated for the duration of the study. The dosages were prepared as follows: based on the animal’s body weight, a calculated volume of compound 8 stock solution was accurately pipetted onto a cubic piece (approx. 50 mg) of sterilized toast (Ölz multigrain toast, Rudolf Ölz Meisterbäcker GmbH & Co KG, Austria), and left to dry at room temperature for 5 min. Subsequently, 25 μL of 50% sucrose in distilled water were added at the same site to mask the bitter taste of compound 8. These dosage units were prepared twice a week during the study and stored in a closed glass petri dish at room temperature until use. […] Compound 8 was administered in this way for 27 days, eliminating the need for repeated handling and injection. The animals were observed daily for general activity level, hair coat quality or other abnormal behavior or clinical signs.
24 h after the last dose was administered, the mice were humanly euthanized under isoflurane inhalation anesthesia (Isoflurin®, VetPharma, Spain) and the blood was withdrawn from the left ventricle using a syringe, collected in a microtube (Eppendorf, Safe-Lock tube, 0.5 mL, Eppendorf AG, Germany) and allowed to clot. After approximately 1 h, the blood was centrifuged at 6000 × g for 15 min at 4 °C to obtain the sera, which were stored at –80 °C until analysis. […] Animal sera (5–10 μL) were diluted in 0.5 mmol/L DTNB in 0.1 mol/L sodium phosphate buffer pH 7.4 (total volume 1000 μL), substrate (5 μL of 100 mmol/L, final concentration 0.5 mmol/L) was added, and the increase in absorbance monitored for 3 min. BChE activity was determined using butyrylthiocholine iodide, while AChE activity was determined on isoOMPA-inhibited sera (buffer-diluted sera were preincubated for 25 min with 1 μL of 100 mmol/L isoOMPA–0.1 mmol/L final concentration) using acetylthiocholine iodide (final concentration 0.5 mmol/L). Measurements were performed in triplicate and pairwise compared before and after treatment for each subject (n = 5 per group).

With `CCN(CC)C(=O)n1cnc(C2(CC)Cc3ccccc3C2)c1` [Compound 8, N,N-Diethyl-4-(2-ethylindan-2-yl)-1H-imidazole-1-carboxamide] the “serum AChE activities at the end of treatment” value (1 or 5 mg/kg p.o. once a day for 4 weeks) was “unchanged”, the remaining activity at 1 mg/kg (mouse, po, serum, 1 mg/kg p.o. once a day, individual animals, after vs before treatment, read-out: AChE residual activity) was 91.2% and the remaining activity at 1 mg/kg (mouse, po, serum, 1 mg/kg p.o. once a day, read-out: AChE residual activity, AVERAGE) was 101%. For the same compound, the remaining activity at 5 mg/kg (mouse, po, serum, 5 mg/kg p.o. once a day, read-out: AChE residual activity, AVERAGE) was 91.2%, the AChE residual activity (serum, 1 mg/kg p.o. once a day, individual animals, after vs before treatment, 1 mg/kg) was 104.0%±9.7% and 107.1%±22.3% and the “AChE activity AFTER treatment” value (serum, 1 mg/kg p.o. once a day, individual animals, 1 mg/kg) was 0.9541±0.2227 U/mL and 1.0365±0.0653 U/mL and 0.8481±0.0324 U/mL. For the same compound, the AChE residual activity (serum, 5 mg/kg p.o. once a day, individual animals, after vs before treatment, 5 mg/kg) was 89.7%±14.6% and 63.0%±13.9% and 121.0%±17.4% and the “AChE activity AFTER treatment” value (serum, 5 mg/kg p.o. once a day, individual animals, 5 mg/kg) was 0.9258±0.0430 U/mL and 0.7420±0.1450 U/mL and 0.9517±0.0657 U/mL.
